Measurements taken from patent publication EP2527351B1, “Lipophosphonoxins, method of their preparation and use” (priority 2011, dated 2012).
Values after ≈ are worked out from the molar mass of the structure shown.

Columns and labels:
[1] = test system: normal erythroid progenitor cells; experiment: CellTiter-Blue Cell Viability Assay; type: cell-based, Human; conditions: 48 hours of incubation
Procedure: Human immature erythroid progenitors isolated from umbilical cord blood are cultivated in the StemSpan serum-free medium (StemCell Technologies) in the presence of the stem cell factor (SCF, 100 ng/ml), erythropoetin (EPO, 33.34 nkat/ml) and dexamethasone (1 µmol.l^-1) (Panzenbock et al. 1998). Cells are plated at 25000 cells/well/20 µl in 384-well plates immediately before addition of lipophosphonoxine compound from particular examples. After 48 hours of incubation at 37 °C in 5% CO2 viability is determined by using the commercial CellTiter-Blue® Cell Viability Assay (Promega, Cat.# G8082). The assay is based on the ability of living cells to convert a redox dye (resazurin) into a fluorescent end product (resorufin). […] The homogeneous assay procedure involves adding the single reagent directly to cells cultured in serum-supplemented medium. After an incubation step, data are recorded.
(§1) The fluorescence intensity is measured using the EnVision plate reader (PerkinElmer). Data are analyzed using GraphPad Prism 5.0 statistical software.

[2] = test system: normal human erythroid progenitor cells; experiment: CytoTox-ONE Homogeneous Membrane Integrity Assay (LDH release); type: cell-based; conditions: cytotoxicity, CytoToxOne, after 4 hours
Procedure: Human immature erythroid progenitors isolated from umbilical cord blood are cultivated in the StemSpan serum-free medium (StemCell Technologies) in the presence of the stem cell factor (SCF, 100 ng/ml), erythropoetin (EPO, 33.34 nkat/ml) and dexamethasone (1 µmol.l^-1) (Panzenbock et al. 1998). Cells are plated at 25000 cells/well/20 µl in 384-well plates immediately before addition of lipophosphonoxine compound from particular examples. After 48 hours of incubation at 37 °C in 5% CO2 viability is determined by using the commercial CellTiter-Blue® Cell Viability Assay (Promega, Cat.# G8082). […] After an incubation step, data are recorded.
Cytotoxicity is determined after 4 hours at 37 °C in 5% CO2 using commercial CytoTox-ONE™ Homogeneous Membrane Integrity Assay (Promega, Cat.# G7892), a fluorometric method for estimating the number of non-viable cells present in multiwell plates. […] LDH released into the culture medium is measured with a 10-minute coupled enzymatic assay that results in the conversion of resazurin into a fluorescent resorufin product. The amount of fluorescence produced is proportional to the number of lysed cells.
as §1

[3] = test system: E. faecalis CCM 4224; experiment: Microdilution MIC, reference strain; conditions: read after 24/48 hours at 37°C
Procedure: (§2) Antimicrobial activity is assessed using the standard microdilution method determining the minimum inhibitory concentration (MIC) of the tested samples leading to inhibition of bacterial growth. Disposable microtitration plates are used for the tests. The samples were diluted in brain heart infusion broth (Himedia, Laboraties Pvt. Ltd., ? eská republika) and Mueller-Hinton broth (HiMedia Laboraties, see above) to yield a concentration range between 200 µg/ml and 1.5625 µg/ml. The plates are inoculated with a standard amount of the tested microbe - the inoculum density in each well is equal to 10^5-6 CFU/ml. The MIC is read after 24/48 hours of incubation at 37°C as the minimum inhibitory concentration of the tested substance that inhibits the growth of the bacterial strains.
(§3) Standard reference bacterial strains (E. faecalis CCM 4224, S. aureus CCM 4223) from the Czech Collection of Microorganisms (CCM), Faculty of Science, Masaryk University Brno, S. agalactiae, B. subtilis, methicilin-resistant S. aureus 4591, fluoroquinolone-resistant S. haemolyticus 16568, vancomycin-resistant E. faecium VanA419/ana and methicilin-resistant S. epidermidis 8700/B strains obtained from the Teaching Hospital Olomouc were used. All tested microorganisms were stored in cryotubes (ITEST plus, Czech Republic) at -80°C.

[4] = test system: B. subtilis; experiment: Microdilution MIC, reference strain; conditions: read after 24/48 hours at 37°C
Procedure: as §2, §3

[5] = test system: S.agalactiae; experiment: Microdilution MIC, reference strain; conditions: read after 24/48 hours at 37°C
Procedure: as §2, §3

[6] = test system: S. aureus MRSA 4591; experiment: Microdilution MIC, resistant strain; conditions: methicilin-resistant strain, 24/48 hours at 37°C
Procedure: as §2
(§4) Standard reference bacterial strains (E. faecalis CCM 4224, S. aureus CCM 4223) from the Czech Collection of Microorganisms (CCM), Faculty of Science, Masaryk University Brno, S. agalactiae, B. subtilis, methicilin-resistant S. aureus 4591, fluoroquinolone-resistant S. haemolyticus 16568, vancomycin-resistant E. faecium VanA419/ana and methicilin-resistant S. epidermidis 8700/B strains obtained from the Teaching Hospital Olomouc were used. All tested microorganisms were stored in cryotubes (ITEST plus, Czech Republic) at -80°C. […]

[7] = test system: S. haemolyticus 16568; experiment: Microdilution MIC, resistant strain; conditions: fluoroquinolone-resistant strain, 24/48 hours at 37°C
Procedure: as §2, §4

[8] = test system: E. faecium VanA 419/ana; experiment: Microdilution MIC, resistant strain; conditions: vancomycin-resistant strain, 24/48 hours at 37°C
Procedure: as §2, §4

[9] = test system: S. epidermidis 8700/B; experiment: Microdilution MIC, resistant strain; conditions: methicilin-resistant strain, 24/48 hours at 37°C
Procedure: as §2, §4

[10] = test system: Giardia trophozoite growth; conditions: cited from earlier work
[11] = test system: cyst formation; conditions: cited from earlier work
[12] = test system: Mycobacterium tuberculosis strains; conditions: drug-susceptible strains, in vitro; cited from earlier work
[13] = test system: mice; conditions: mouse, in vivo; cited from earlier work

Molecule	IC50 [1]	[Max. safety concentration] [1]	MIC E. faecalis CCM 4224 [3]	MIC B. subtilis [4]	MIC S.agalactiae [5]	MIC E. faecium VanA 419/ana [8]	MIC S. epidermidis 8700/B [9]	also measured
CCCCCCCCCCCCCCOP(=O)(CCN1C[C@@H](O)[C@H](O)C1)OC[C@H]1O[C@@H](n2ccc(=O)[nH]c2=O)[C@H](O)[C@@H]1O (stereo partly drawn) [Example 17, Tetradecyl uridin-5'-yl 2-([3R,4R]-3,4-dihydroxypyrrolidin-l-N-yl)ethylphosphonate]	47 µg/mL (≈ 74.2 µM)	31 µg/mL	12,5 µg/ml	6,25 µg/ml	6,25 µg/ml	12,5 µg/ml	12,5 µg/ml	EC50 [2]: 302 µg/mL (≈ 477 µM); [Max. safety concentration] [2]: 125 µg/mL; MIC S. aureus MRSA 4591 [6]: 25 µg/mL (≈ 39.4 µM); MIC S. haemolyticus 16568 [7]: 12,5 µg/ml
O=c1ccn([C@@H]2O[C@H](COP(=O)(O)CCN3C[C@@H](O)[C@H](O)C3)[C@@H](O)[C@H]2O)c(=O)[nH]1 [phosphonoxin]	–	–	–	–	–	–	–	vegetative growth [10]: potently inhibited; cyst formation [11]: did not specifically inhibit
Hexadecyloxypropyl uridin-5'-yl 2-([3R,4S,5S]-3,4-trihydroxypiperidin-1-N-yl)ethyl-phosphonate [Example 12]	141 µg/mL	62 µg/mL	–	–	12,5 µg/ml	–	–	–
Hexadecyloxypropyl uridin-5'-yl 2-([3R,5R]-3,4-dihydroxypiperidin-1-N-yl)ethyl-phosphonate [Example 11]	40 µg/mL	31 µg/mL	12,5 µg/ml	6,25 µg/ml	6,25 µg/ml	6,25 µg/ml	6,25 µg/ml	–
Hexadecyloxypropyl uridin-5'-yl 2-([3R,5R]-3,4-dihydroxypiperidin-1-N-yl)ethylphosphonate [Example 13]	45 µg/mL	15 µg/mL	–	–	6,25 µg/ml	–	–	–
caprazamycins [CPZs]	–	–	–	–	–	–	–	MIC [12]: 3.13 µg/mL; toxicity in mice [13]: no significant toxicity
